From US5565480A, “Substituted histidines” (SmithKline Beecham Corporation, priority 1995, dated 1996)

Tested on: pressor response to exogenous angiotensin II
Assay: Inhibition of pressor response to angiotensin II in conscious rats
Assay type: in vivo
Settings: Rattus norvegicus, iv, change in mean arterial pressure, read-out: IC50, dose of compound needed to produce 50% inhibition of the control response to angiotensin II
Method: Angiotensin II antagonist activity of the compounds of Formula (I) is assessed by in and in vivo methods. In vitro antagonist activity is determined by the ability of the compounds to compete with ^125 I-angiotensin II for binding to vascular angiotensin II receptors and by their ability to antagonize the contractile response to angiotensin II in the isolated rabbit aorta. In vivo activity is evaluated by the efficacy of the compounds to inhibit the pressor response to exogenous angiotensin II in conscious rats and to lower blood pressure in a rat model of renin dependent hypertension.
Rats are prepared with indwelling femoral arterial and venous catheters and a stomach tube (Gellai et al., Kidney Int. 15:419, 1979). Two to three days following surgery the rats are placed in a restrainer and blood pressure is continuously monitored from the arterial catheter with a pressure transducer and recorded on a polygraph. The change in mean arterial pressure in response to intravenous injections of […] angiotensin II is compared at various time points prior to and following the administration of the compounds intravenously or orally at doses of 3 to 300 mg/kg. The dose of compound needed to produce 50% inhibition of the control response to angiotensin II (IC50) is used to estimate the potency of the compounds. […]

With `CCCCc1ncc(C[C@H](NC(=O)CCC)C(=O)O)n1Cc1ccccc1Cl` [Example 8, 3-[(2-Chlorophenyl)methyl]-2-n-butyl-N-butyrylhistidine] the ED50 was 10 mg/kg.
